Source: ChEMBL document CHEMBL5154882, “Discovery of 4-Hydroxyquinazoline Derivatives as Small Molecular BET/PARP1 Inhibitors That Induce Defective Homologous Recombination and Lead to Synthetic Lethality for Triple-Negative Breast Cancer Therapy” (J Med Chem, 2022)
The source made the active and inactive calls. The rule behind the calls is not given here.

Tests used:
[1] = biological target: T1, Bromodomain-containing protein 4 (Homo sapiens, UniProt O60885); assay: Inhibition of BRD4 BD1 (unknown origin)
[2] = biological target: T1, Bromodomain-containing protein 4; assay: Inhibition of BRD4 (unknown origin) at 1 uM relative to control
[3] = biological target: T2, Poly [ADP-ribose] polymerase 1 (Homo sapiens, UniProt P09874); assay: Inhibition of PARP1 (unknown origin) at 1 uM relative to control
T2 sequence (P09874 whole entry): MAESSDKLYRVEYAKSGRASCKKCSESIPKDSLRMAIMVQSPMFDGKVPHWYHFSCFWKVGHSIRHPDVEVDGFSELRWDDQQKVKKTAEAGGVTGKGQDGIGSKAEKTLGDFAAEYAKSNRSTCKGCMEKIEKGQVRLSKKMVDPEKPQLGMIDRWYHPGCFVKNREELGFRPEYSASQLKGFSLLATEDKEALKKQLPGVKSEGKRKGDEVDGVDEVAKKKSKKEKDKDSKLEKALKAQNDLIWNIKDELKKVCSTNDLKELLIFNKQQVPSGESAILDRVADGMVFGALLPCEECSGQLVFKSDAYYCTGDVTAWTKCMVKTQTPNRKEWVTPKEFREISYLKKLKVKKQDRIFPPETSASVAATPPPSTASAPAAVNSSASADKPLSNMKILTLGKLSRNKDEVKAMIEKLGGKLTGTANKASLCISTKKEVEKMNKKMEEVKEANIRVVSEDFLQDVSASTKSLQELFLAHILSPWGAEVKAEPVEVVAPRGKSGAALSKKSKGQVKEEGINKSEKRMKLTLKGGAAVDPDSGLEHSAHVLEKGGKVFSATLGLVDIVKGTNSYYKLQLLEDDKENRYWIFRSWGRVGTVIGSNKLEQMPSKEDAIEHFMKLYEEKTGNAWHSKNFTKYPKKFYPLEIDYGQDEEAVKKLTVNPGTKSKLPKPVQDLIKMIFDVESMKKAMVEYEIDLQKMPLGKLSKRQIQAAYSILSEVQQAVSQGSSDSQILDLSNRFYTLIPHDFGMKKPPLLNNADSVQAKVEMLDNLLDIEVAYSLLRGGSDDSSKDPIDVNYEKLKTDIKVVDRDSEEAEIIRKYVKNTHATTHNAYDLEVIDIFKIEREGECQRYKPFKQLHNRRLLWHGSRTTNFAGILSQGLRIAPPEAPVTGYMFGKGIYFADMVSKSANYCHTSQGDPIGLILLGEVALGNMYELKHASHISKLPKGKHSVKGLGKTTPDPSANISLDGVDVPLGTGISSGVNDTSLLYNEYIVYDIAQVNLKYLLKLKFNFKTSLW

[4] = system: MDA-MB-231; assay: Antitumor activity against human MDA-MB-231 cells xenografted in BALB/c nude mouse assessed as reduction in Rad51 expression at 40 to 80 mg/kg incubated for 30 to 40 mins by immunohistochemical analysis; type: functional, organism-based; conditions: dose 40-80 mg/kg, time 30-40 min
[5] = Toxicity in BALB/c nude mouse xenografted with human MDA-MB-468 cells assessed as change in body weight at 80 mg/kg, ig administered daily for 16 days measured every 3 days; type: organism-based; conditions: in vivo, po, 384 h, time 16 day
[6] = Apparent volume of distribution in Sprague-Dawley rat at 1 mg/kg, iv; type: ADME, organism-based; conditions: in vivo
[7] = Toxicity in BALB/c nude mouse xenografted with human MDA-MB-468 cells assessed as morphological changes in spleen at 40 to 80 mg/kg, ig administered daily for 16 days measured every 3 days by hematoxyin-eosin staining based analysis; type: organism-based; conditions: in vivo, po, 384 h, dose 40-80 mg/kg, time 16 day
[8] = system: MDA-MB-468; assay: Induction of apoptosis in human MDA-MB-468 cells assessed as late apoptotic cells at 20 uM incubated for 72 hrs by annexin V/propidium iodide staining-based flow cytometry analysis (reference value: 1.34%); type: functional
[9] = system: MDA-MB-468; assay: Inhibition of homologous recombinant repair in human MDA-MB-468 cells assessed as down-regulation of CtlP expression at 5 to 20 uM in by Western blot analysis; type: functional, cell-based; conditions: dose 5-20 µM
[10] = system: MDA-MB-468; assay: Downregulation of PARP1 expression level in human MDA-MB-468 cells by Western blot analysis; type: functional, cell-based; conditions: dose 5-20 µM, DDE = dose-dependent effect
[11] = system: MDA-MB-468; assay: Induction of apoptosis in human MDA-MB-468 cells assessed as downregulation of Bcl-2 protein level at 20 uM incubated for 72 hrs by Western blot analysis; type: functional, cell-based
[12] = biological target: T1, Bromodomain-containing protein 4; assay: Binding affinity to BRD4 in human MDA-MB-468 cells assessed as increase in thermal stability at 5 uM by cellular thermal shift assay; type: cell-based
[13] = biological target: T2, Poly [ADP-ribose] polymerase 1
[14] = system: MDA-MB-231; assay: Antiproliferative activity against human MDA-MB-231 cells assessed as reduction in cell viability incubated for 72 hrs by MTT assay; type: functional, cell-based; conditions: MDA-MB-231, 72 h
[15] = Half life in Sprague-Dawley rat at 10 mg/kg, po; type: ADME, organism-based; conditions: in vivo
[16] = system: MDA-MB-468; assay: Cell cycle arrest in human MDA-MB-468 cells assessed as accumulation at G2/M phase at 20 uM incubated for 72 hrs by propidium iodide staining-based flow cytometry analysis (reference value: 16.1%); type: functional
[17] = system: MDA-MB-231; assay: Antitumor activity against human MDA-MB-231 cells xenografted in BALB/c nude mouse assessed as downregulation of c-Myc at 80 mg/kg by Western blot analysis; type: functional, organism-based
[18] = system: MDA-MB-468; assay: Cell cycle arrest in human MDA-MB-468 cells assessed as accumulation at G2/M phase at 10 uM incubated for 72 hrs by propidium iodide staining-based flow cytometry analysis (reference value: 16.1%); type: functional
[19] = system: MDA-MB-468; assay: Cell cycle arrest in human MDA-MB-468 cells assessed as accumulation at S phase at 5 uM incubated for 72 hrs by propidium iodide staining-based flow cytometry analysis (reference value: 21.1%); type: functional
[20] = AUC (0 to t) in Sprague-Dawley rat at 1 mg/kg, iv; type: ADME, organism-based; design: dose 1 mg/kg, route iv; conditions: in vivo
[21] = Toxicity in BALB/c nude mouse xenografted with human MDA-MB-468 cells assessed as morphological changes in heart at 80 mg/kg, ig administered daily for 16 days measured every 3 days by hematoxyin-eosin staining based analysis; type: organism-based; conditions: in vivo, po, 384 h, time 16 day
[22] = Toxicity in BALB/c nude mouse xenografted with human MDA-MB-468 cells assessed as death at 80 mg/kg, ig administered daily for 16 days measured every 3 days; type: organism-based; conditions: in vivo, po, 384 h, time 16 day
[23] = system: MDA-MB-468; assay: Induction of apoptosis in human MDA-MB-468 cells assessed as early apoptotic cells at 10 uM incubated for 72 hrs by annexin V/propidium iodide staining-based flow cytometry analysis (reference value: 4.07%); type: functional
[24] = Toxicity in BALB/c nude mouse xenografted with human MDA-MB-468 cells assessed as morphological changes in liver at 40 to 80 mg/kg, ig administered daily for 16 days measured every 3 days by hematoxyin-eosin staining based analysis; type: organism-based; conditions: in vivo, po, 384 h, dose 40-80 mg/kg, time 16 day
[25] = system: MDA-MB-231; assay: Antitumor activity against human MDA-MB-231 cells xenografted in BALB/c nude mouse assessed as downregulation of CtIP at 80 mg/kg by Western blot analysis; type: functional, organism-based
[26] = AUC (0 to t) in Sprague-Dawley rat at 10 mg/kg, po; type: ADME, organism-based; design: dose 10 mg/kg, route po; conditions: in vivo
[27] = system: MDA-MB-468; assay: Downregulation of BRD4 expression level in human MDA-MB-468 cells by Western blot analysis; type: functional, cell-based; conditions: dose 5-20 µM, DDE = dose-dependent effect
[28] = Toxicity in BALB/c nude mouse xenografted with human MDA-MB-468 cells assessed as morphological changes in spleen at 80 mg/kg, ig administered daily for 16 days measured every 3 days by hematoxyin-eosin staining based analysis; type: organism-based; conditions: in vivo, po, 384 h, time 16 day
[29] = system: MDA-MB-231; assay: Induction of DNA damage in human MDA-MB-231 cells assessed as increase in tail DNA measured at 5 to 20 uM after 3 days by comet assay; type: functional, cell-based; conditions: dose 5-20 µM, time 3.0 day
[30] = system: MDA-MB-468; assay: Cell cycle arrest in human MDA-MB-468 cells assessed as accumulation at S phase at 20 uM incubated for 72 hrs by propidium iodide staining-based flow cytometry analysis (reference value: 21.1%); type: functional
[31] = Toxicity in BALB/c nude mouse xenografted with human MDA-MB-468 cells assessed as morphological changes in lung at 80 mg/kg, ig administered daily for 16 days measured every 3 days by hematoxyin-eosin staining based analysis; type: organism-based; conditions: in vivo, po, 384 h, time 16 day
[32] = system: MDA-MB-231; assay: Antitumor activity against human MDA-MB-231 cells xenografted in BALB/c nude mouse assessed as downregulation of […] downstream protein at 40 mg/kg by Western blot analysis; type: functional, organism-based
[33] = Toxicity in BALB/c nude mouse xenografted with human MDA-MB-468 cells assessed as death at 40 to 80 mg/kg, ig administered daily for 16 days measured every 3 days; type: organism-based; conditions: in vivo, po, 384 h, dose 40-80 mg/kg, time 16 day
[34] = system: MDA-MB-231; assay: Antitumor activity against human MDA-MB-231 cells xenografted in BALB/c nude mouse assessed as tumor growth inhibition at 40 to 80 mg/kg incubated for 30 to 40 mins by Ki-67 staining based immunohistochemical analysis; type: functional, organism-based; conditions: dose 40-80 mg/kg, time 30-40 min
[35] = system: MDA-MB-468; assay: Downregulation of c-Myc expression level in human MDA-MB-468 cells by Western blot analysis; type: functional, cell-based; conditions: dose 5-20 µM, DDE = dose-dependent effect
[36] = system: MDA-MB-468; assay: Induction of DNA damage in human MDA-MB-468 cells assessed as up-regulation of gammaH2AX expression level at 5 to 20 uMby DAPI staining based immunofluorescence assay; type: functional, cell-based; conditions: dose 5-20 µM

SMILES: COc1cc(OC)c2c(=O)[nH]c(-c3cccc(Cc4n[nH]c(=O)c5ccccc45)c3)nc2c1
- IC50 [1]: 251 nM
- inhibition [2]: 76.2%
- inhibition [3]: 79.2%
- Activity [4]: Active
- Activity [5]: Non-Toxic
- Vz [6]: 21.1 L/kg
- Activity [7]: Non-Toxic
- Activity [8]: 6.18%
- inhibition [9]: Active
- Activity [10]: Dde
- Activity [11]: Active
- Activity [12]: Active
- IC50 [13]: 197 nM
- IC50 [14]: 6610 nM
- half-life [15]: 3.33 h
- Activity [16]: 14%
- Activity [17]: Active
- Activity [18]: 14.5%
- Activity [19]: 22.2%
- AUC(0-t) [20]: 629 ng·h/mL
- Activity [21]: Non-Toxic
- Activity [22]: Non-Toxic
- Activity [23]: 25.61%
- Activity [24]: Non-Toxic
- Activity [25]: Active
- AUC(0-t) [26]: 1490 ng·h/mL
- Activity [27]: Dde
- Activity [28]: Non-Toxic
- Activity [29]: Active
- Activity [30]: 12.4%
- Activity [31]: Non-Toxic
- Activity [32]: Active
- Activity [33]: Non-Toxic
- Activity [34]: Active
- Activity [35]: Dde
- Activity [36]: Active
